Reference: US20240398767A1, “INHIBITORS OF THE MTDH-SND1 PROTEIN COMPLEX FOR CANCER THERAPY” (The Trustees of Princeton University, priority 2021, published 2024)
“Also recorded” adds a separate entry of the source.

How the values were obtained:
[1] = system: Py8119-OVA cells co-cultured with OT-I splenocytes; experiment: Py8119-OVA tumor cell / OT-I splenocyte co-culture; format: cell-based, mouse; settings: 200 μM
Protocol: FIG. 22C, Py8119-OVA cells co-cultured with OT-I splenocytes were treated with 200 μM of C26-A6 or same amount of vehicle. The binding between MTDH and Tap1/2 in tumor cells were determined by RIP assay.
FIG. 22D, Tap1/2 RNAs that bind to MTDH in (c) were quantified and normalized to the pulled down MTDH levels.
FIG. 22E, Tap1/2 levels in Py8119-OVA cells with/without 200 μM of C26-A6 treatment during co-culture were examined by qRT-PCR.
FIG. 22F, OVA (H-2K^b-SIINFEKL) presentation in Py8119-OVA cells with/without 200 μM of C26-A6 treatment in co-culture were determined by flow cytometry. MFI, Mean Fluorescence Intensity; AU, arbitrary units.
FIG. 22G, Media in (E) was collected for IFN-γ ELISA and cytotoxicity assay. AU, arbitrary units.
FIG. 32B, Py8119-OVA cells co-cultured with OT-I splenocytes were treated with 200 μM of C26-A6 or same amount of vehicle. The binding between SND1 and Tap1/2 in tumor cells were determined by RIP assay.
FIG. 32C, Tap1/2 RNAs that bind to SND1 were quantified and normalized to the pulled down SND1 levels.
FIG. 32D, MHC-I presentation in Py8119-OVA cells with/without 200 μM of C26-A6 treatment in co-culture were determined by flow cytometry. MFI, mean fluorescence intensity; AU, arbitrary units.
FIGS. 32E, The expression of CD137 in splenocytes co-cultured with Py8119-OVA was determined by flow cytometry upon 200 μM of C26-A6 or vehicle treatment.
FIGS. 32F, The expression of IFN-γ in splenocytes co-cultured with Py8119-OVA were determined by flow cytometry upon 200 μM of C26-A6 or vehicle treatment.
Immune cell and tumor cell co-culture assay. Py8119-OVA tumor cells with various MTDH expression status were plated in 6-well plates for in vitro co-culture in DMEM/F12 media listed above. Once cells reached 50-75% confluency OT-I splenocytes or CD8^+ T cells were added to the tumor cells at the 1:10 ratio (tumor cell. immune cell). After 24 hr of co-culture, the cells and culture media were collected for further experiments.
RNA-Binding immunoprecipitation (RIP) and western blot (WB). Py8119-OVA tumor cells after co-culture for 24 hr were collected for RIP using RNA-Binding Protein Immunoprecipitation Kit (Millipore, #17-700). Briefly, 5×10^7 tumor cells were resuspended with 200 μL of RIP lysis buffer and frozen at −80° C. for at least 1 hr to lyse the cells. The sample was then centrifuged at 14,000 rpm for 10 min at 4° C. 20 μL of supernatant was transferred to two new tubes with 10 μL each and frozen at −80° C. to serve as input of total. The rest of the supernatant was diluted with 1.8 ml of RIP immunoprecipitation buffer and split equally into two 1.5 ml EP tubes. 5 μg of MTDH (Invitrogen, catalogue #40-6500), SND1 (Santa Cruz, catalogue #sc-271590) or IgG (provided in the Kit) antibody was added into each tube and incubated at 4° C. overnight. The next day, 50 μL of magnetic beads was added and incubated for another 2 hr. The beads were then washed with 500 μL of RIP wash buffer on a magnetic separator for 5 times. During the final wash, 25 μL of the beads in the wash buffer was transferred into a new tube, stored at −80° C. to serve as input of IP. The rest of the beads together and 10 μL input of total were resuspended with 300 μL of proteinase K buffer respectively and incubated at 55° C. for 30 min to degrade proteins. RNA was extracted with phenol:chloroform:isoamyl alcohol and precipitated with 100 μL of Salt Solution I, 30 μL of Salt Solution II, and 10 μL of Precipitation Enhancer at −80° C. overnight. […]

[2] = Toxicity in PyMT tumor-bearing FVB mice (body weight, ALT/AST, blood cell counts, small intestine); format: in vivo; settings: 15 mg/kg i.v.
Protocol: FIG. 12D, Body weight of the mice in experiment from FIG. 5B was measured. Vehicle, n=10 mice; C26-A6, n=12 mice.
FIG. 12E, Serum from mice in experiment in FIG. 5B were collected for ALT and AST activity measurement following the standard protocol (Sigma). Three FVB females treated with 200 μl of 8% CCl4 in corn oil for 2 days served as positive control. Data represent mean±SEM. n=5 mice per group. Significance determined by one-way ANOVA analysis with Dunnett's test for multiple comparisons.
FIG. 12F, Blood samples were drawn from the heart of mice in experiment FIG. 5B, and blood cell counts were performed with the Sysemx XN-3000 Hematology System (Sysmex America, Inc.) Data represent mean±SEM. Vehicle, n=6 mice; C26-A6, n=5 mice. Significance determined by two tailed Student's t-test.
FIG. 12G, Small intestine samples were obtained from mice in experiment from FIG. 5B. H&E and Alcian blue staining was performed on processed, sliced samples. Scale bar: 200 μm.
FIG. 12H, Quantification of Alcian blue staining results from (FIG. 12G). Data represent mean±SEM. n=12 fields from 5 mice in each group. Significance determined by two tailed Student's t-test.

[3] = Toxicity in 4TO7 metastasis-bearing mice (ALT/AST, blood cell counts, small intestine); format: in vivo
Protocol: FIG. 7E, Serum from mice in FIG. 7A were collected for ALT and AST activity measurement following the standard protocol (Sigma). Data represent mean±SEM. AST, n=8 replicates from 6 mice; ALT, n=9 replicates from 6 mice. Significance determined by one-way ANOVA analysis with Sidak's test for multiple comparisons.
FIG. 7F, Blood samples were drawn from the heart of mice in FIG. 7A, and blood cell counts were performed with the Sysemx XN-3000 Hematology System (Sysmex America, Inc.). Data represent mean±SEM. n=6 mice per group. Significance determined by one-way ANOVA analysis with Sidak's test for multiple comparisons.
FIG. 7G, Small intestine samples were obtained from mice in FIG. 7A. H&E and Alcian blue staining was performed on processed, sliced samples. Scale bar: 200 μm.
FIG. 7H, Quantification of Alcian blue staining results from FIG. 7G. Data represent mean±SEM. n=12 fields from 6 mice in each group. Significance determined by one-way ANOVA analysis with Sidak's test for multiple comparisons.

For COc1ccc(Cl)cc1S(=O)(=O)Nc1cccn2nc(C)nc12 [Analog C26-A6], the “OVA antigen and MHC-I complex presentation (flow cytometry)” value [1] was “promotes OVA antigen and MHC-I complex presentation”, the “T cell activation (CD137, IFN-γ)” value [1] was “promotes” and the “Tap1/2 binding of MTDH and SND1 (RIP assay)” value [1] was “decreased the Tap1/2 binding of MTDH and SND1”. For the same compound, the “Tap1/2 mRNA expression level (qRT-PCR)” value [1] was “increased the expression level of these mRNAs”, the “immune clearance of tumor cells (cytotoxicity assay)” value [1] was “sensitizes the tumor cells to immune clearance” and the “hematologic, GI tract, and liver toxicity / tolerability” value [2] was “no significant hematologic, GI tract, and liver toxicity; also recorded: well-tolerated in vivo with minimal toxicity”. The tolerability ([3]; 15 mg/kg 5 days per week) was “well tolerated” and the “enhancement of chemotherapy toxicity” value ([3]; combined with paclitaxel) was “did not further enhance the chemotherapy toxicity”.
